The source of these data is US20100215710A1, “Beta-2 Adrenergic Receptor Agonists and Antagonists and Modulation of Wound Healing” (The Regents of the University of California, priority 2005, published 2010).

Each structure is given as a SMILES string.

The conditions of data set [1]: cited from earlier work.
Data set [2] relates to human skin wounds. The data set is described as follows: Human skin wound healing assay (explant culture, 10% serum). It counts as cell-based. The note with it: isoproterenol-treated wounds. From the text:
A wound healing model developed by Kratz (Kratz (1998) Modeling of wound healing processes in human skin using tissue culture. Microsc Res Tech 42:345-350) was adapted. Normal human skin was obtained from routine breast reductions or abdominoplasties under an approved exemption granted by the Internal Review Board at University of California, Davis. Under sterile conditions, excess subcutaneous fat was trimmed from 6″×3″ sections of skin prior to stretching and pinning onto sterile cork board. A 3 mm punch (Sklar Instruments, West Chester, Pa.) was used to make wounds in the epidermis and into the superficial dermis and the 3 mm discs of skin were excised using sterile scissors. 6 mm skin discs, with the 3 mm epidermal wound in the center, were excised using a 6 mm biopsy punch (SMS Inc., Columbia, Md.). […] Re-epithelialization was determined using light microscopy. […] Measuring the linear distance covered by new epithelium and dividing that by the linear distance between the original wound edges determined the percentage of re-epithelialization. […]
Wounds, 3 mm in diameter, were generated in excised human skin, cultured in the presence or absence of 10 μM isoproterenol, fixed and stained every day after wounding as described. Re-epithelialization was determined using light microscopy. […]

The test system of data set [3] is human skin burn wounds. The data set is described as follows: Ex vivo model of burn wound healing in excised human skin. The note with it: for burn wound re-epithelialization status: 10 μm, day ten after the burn wound, control did not fully re-epithelialize. Type of data set: cell-based. The procedure:
An ex vivo model of burn wound healing was developed. A heated brass rod was applied to excised human skin, obtained and maintained basically as described above in Example 1. Burn wounds were treated with β-AR agonist (10 μm isoproterenol) or β-AR antagonist (10 μm timolol). […] Images were taken at 40× magnification.

In data set [4] the test system is corneal epithelial wounds. The data set is described as follows: Corneal epithelial wound healing in vivo in β2-AR +/+ or −/− mice. The procedure: Using male β2-AR +/+ or β2-AR −/− mice, 2 mm diameter circular corneal epithelial wounds (OD) were created using a crescent blade. The corneas were treated topically with Balanced Salt Solution (BSS), BSS with 1% isoproterenol, or BSS with 0.5% timolol, and the wound healing was monitored stereomicroscopically using fluorescein.

Data set [5] concerns cultured human keratinocytes. The data set can be described thus: Keratinocyte migratory speed with epinephrine at post-burn levels. Type of data set: cell-based. An excerpt: (§1) Since burn wounded patients have elevated levels of the circulating β2-AR activator epinephrine, whether blockade of β2-ARs increases keratinocyte migration and has the potential to accelerate burn wound re-epithelialization was examined.

The test system of data set [6] is human keratinocytes. The data set is described as follows: Scratch wounding of confluent keratinocytes with epinephrine. It counts as cell-based.
Source text: as §1

Data set [7] has as its system human keratinocytes. The data set is described as follows: Single cell migration assay, keratinocytes (clenbuterol, OA). Type of data set: cell-based. The note with it: 1 μM clenbuterol, one-hour period, vs control. The procedure: All single cell migration assays were performed on cells plated on glass cover-slips inserted into 35 mm plastic dishes (MatTek Corp., Ashland, Mass.) that had been coated for 1 hour at 37° C. with 60 μg/ml collagen L Cells were plated onto the collagen-coated glass cover-slips at a density of 250 cells/mm^2 for 3-6 hours at 37° C. Cells were either untreated (control), pre-treated with 10 nM okadaic acid (OA) (10 nM) for 45 minutes prior to the addition of OA (10 nM) and clenbuterol (1 μM) (OA/Clen) or treated with either OA or clenbuterol (1 μM) alone at time 0. The dishes were inserted into metal plates, maintained at 37° C., on inverted Nikon Diaphot microscopes to monitor single cell migration. Time-lapse images of the cell migratory response were digitally captured every 10 minutes over a one-hour period by Q-Imaging Retiga-EX cameras (Burnaby, BC, Canada) controlled by a custom automation written in Improvision Open Lab software (Lexington, Mass.) on a Macintosh G4. After each cell's center of mass was tracked using the Open Lab software, migration speed and distance were calculated and imported to Excel (Microsoft Corporation, Redmond, Wash.). Significance was taken as p<0.01, using Student's t test (unpaired) to compare the means of the control and β-AR agonist-treated cell populations.
Keratinocytes were plated onto collagen-coated glass cover-slips at a concentration of 250 cells/mm^2 in KGM for 3-6 hours at 37° C. The migration of each single cell was monitored over a one-hour period, and the results were analyzed in excel as described. The speed of migration ([…]) is represented graphically in FIG. 1 Panel C, control n=57, clenbuterol n=57, OA n=60, OA-clenbuterol n=44. The data are representative of three independent experiments with at least two different keratinocyte strains. * P<0.01 between β-AR agonist and controls; #P<0.01 between OA-clenbuterol and clenbuterol alone.

In data set [8] the test system is human keratinocytes. The data set is described as follows: Scratch assay, confluent keratinocyte cultures (clenbuterol). Type of data set: cell-based. Conditions: 1 μM clenbuterol. The procedure: Human keratinocytes were isolated from neonatal foreskins as reported previously (Isseroff et al. (1987) Conversion of linoleic acid into arachidonic acid by cultured murine and human keratinocytes. J Lipid Res 28:1342-1349) and cultured using a modification of the method of Rheinwald and Green (Rheinwald and Green (1975) Serial cultivation of strains of human epidermal keratinocytes: the formation of keratinizing colonies from single cells. Cell 6:331-343). […]
Cells were grown to confluence on cover-slips (Fisher Scientific, Pittsburgh, Pa.) coated with 60 μg/ml Collagen I (Vitrogen 100, Collagen Corp., Palo Alto, Calif.). […] The area of the wound was determined using NIH Image 1.6 and the percent wound healing calculated by dividing the area of the wound at time X by the area of the wound at time 0 and multiplying by 100. […]
Keratinocytes were grown to confluence on collagen-coated glass cover-slips in the absence (control) or presence of 1 μM clenbuterol. […] Representative photographs of images at time 40 hours are shown in FIG. 1 Panel A. The percent wound healing was calculated and is represented graphically in FIG. 1 Panel B; control wounds are indicated by circles, clenbuterol treated by squares. […]

For data set [9], the system named is β2-AR. The data set can be described thus: Western blot of β2-AR in scratch wounded keratinocyte cultures. It counts as cell-based, human. Conditions: addition of timolol.
Source text: as §1

Consider `CC(C)(C)NCC(O)COc1cccc2c1CC(O)C(O)C2` (stereo not shown) [Nadolol, nadolol], for which, in data set [1], the lipid solubility result is listed as “low”.
Consider `CC(C)NCC(O)c1ccc(O)c(O)c1` (stereo not shown) [isoproterenol], for which the “re-epithelialization of human skin wounds” value in [2] is “significant delay”. Moreover, the delay of re-epithelialization in data set [3] (10 μm isoproterenol, day ten after the burn) was determined as 14%. The “burn wound re-epithelialization status” value in data set [3] was “did not fully re-epithelialize”. In addition, the “delay of wound healing (rate, linear phase)” value in [4] (β2-AR +/+ mice, topical BSS with 1% isoproterenol) was around 80%. For the same compound, the “delay of wound healing” value in [4] (β2-AR −/− mice, topical BSS with 1% isoproterenol) is “but not in β2-AR −/− mice”.
For `CNC[C@H](O)c1ccc(O)c(O)c1` [epinephrine], the “decrease in keratinocyte migratory speed” value in data set [5] (epinephrine 10 nM) is recorded as 75%. Also, the “reduction of scratch wound healing” value in [6] (epinephrine pretreatment) was 70%.
Regarding `CC(C)(C)NCC(O)c1cc(Cl)c(N)c(Cl)c1` (stereo not shown) [clenbuterol], the “reduction of keratinocyte migratory speed” value in [7] was 45%. The “time required for scratch wounds to heal” value in [8] was “significantly increases”. Further, the “percent wound healing of scratch wounds” value in data set [8] (40 hours after wounding, control wounds completely healed) is given as 40%.
For the compound `CC(C)(C)NC[C@H](O)COc1nsnc1N1CCOCC1` [timolol], the “β2-AR downregulation one hour after the scratch” value in data set [9] is reported as “delayed”. Further, the “migratory speed of epinephrine-treated keratinocytes” value in [5] (timolol 10 μM added to epinephrine 10 nM) is reported as “restored the migratory speed to control levels”. Moreover, in [3] (10 μm timolol, day ten after the burn), the enhancement of re-epithelialization came out at 37%. Also, the “burn wound re-epithelialization status” value in data set [3] is given as “fully re-epithelialized”. Moreover, in data set [4] (β2-AR +/+ mice, topical BSS with 0.5% timolol), the rate of healing entry was “increased the rate of healing significantly”. The “increase in rate of healing” value in data set [4] (β2-AR −/− mice, topical BSS with 0.5% timolol) is listed as “but not in β2-AR −/− mice”. Further, in data set [6] (timolol added to epinephrine), the “acceleration of scratch wound healing” value was found to be 20% and the “effect on epinephrine-reduced scratch wound healing” value was “reversed the effects of epinephrine”.
